# Measured values from US20070060651A1, “Compositions and methods for improving functional vascular cellular survival integrity and reducing apoptosis in ischemia” (NESTEC S.A., priority 2005, published 2007).
# Key:
# [1] = tested on: transient cerebral ischemia in an ovariectomized rat model; test: Cerebral ischemia-induced apoptosis by TUNEL staining after tMCA occlusion; format: in vivo; settings: average of three brain regions, normalized to DAPI total cells; vs control; FIG. 3
# [2] = tested on: transient cerebral ischemia in an ovariectomized rat model; test: Ischemic lesion (infarct) volume by TTC staining after transient middle cerebral artery (tMCA) occlusion; format: in vivo; settings: all rats; vs control diet; 60 min tMCA occlusion, 24 hours reperfusion; FIG. 1
# Description: Animals. Female Charles Rivers Sprague-Dawley rats (250 g, Wilmington, Mass.) were acclimatized to animal facilities three days prior to surgery with a 12 hour light-dark cycle. Bilateral ovariectomy was performed 2 weeks before diet feeding began. Four weeks after the start of diet feeding, transient middle cerebral artery (tMCA) occlusion under anesthesia was performed following intraperitoneal (i.p.) injection of ketamine (60 mg/kg) and xylazine (10 mg/kg).
# Diet and Hormone Administration. Fourteen to 15 rats per group were randomly assigned to one of five treatment groups. These groups were as follows: […]
# All diets were fed ad libitum to the rats for four weeks. […] Also once per week, body weights and food intake were determined. […]
# Middle cerebral artery occlusion and samples preparation. […] Rectal temperature was monitored and maintained between 36.5 and 37° C. with a heating pad throughout the procedure. […]
# Some animals were eliminated from the study during the protocol. The number of animals quantified for lesion volume ranged from 12 to 15 per group.
# Statistical methods. Results were analyzed with one-way analysis of variance (ANOVA) using Prism software(Graphpad Inc; San Diego, Calif.). The significance of differences among groups was determined by one-way ANOVA followed by Tukey's multiple comparison tests. All values were expressed as mean +/−SEM.
# [3] = tested on: growth factors and anti-inflammatory proteins; test: Expression of growth factors and anti-inflammatory proteins in dogs on supplemental arginine; format: in vivo, dog; settings: dietary supplementation
SMILES,"TUNEL staining / TUNEL-positive cell counts (apoptosis), in words [1]",effect on infarct size / mean infarct volume (in words) [2],expression of multiple growth factors and anti-inflammatory proteins [3]
"C[C@]12CC[C@@H]3c4ccc(O)cc4CC[C@H]3[C@@H]1CC[C@@H]2O [estradiol, 17 β-estradiol]",substantial reduction in TUNEL staining,reduced infarct size,–
"N=C(N)NCCC[C@H](N)C(=O)O [arginine, L-arginine]",–,–,increased expression of multiple growth factors and anti-inflammatory proteins in a dose-dependent manner
